Among the data in patent US12479847B2 (DANA-FARBER CANCER INSTITUTE, INC., priority 2019, dated 2025) are remaining binding values, retold here.

Experiment in all cases: KINOMEscan (ScanMAX) kinase profiling
What all share (assay type): binding

The target of assay [1] is T1, panel of 468 kinases (Homo sapiens, UniProt P00519, H396P).
T1 construct: purchased KINOMEscan (ScanMAX) service
The settings on record: 1 μM, read-out: % control.

Assay [2] has as its target T2, panel of 468 kinases (Homo sapiens, UniProt P00519, Q252H).
T2 construct: purchased KINOMEscan (ScanMAX) service
The settings on record: 1 μM, read-out: % control.

Assay [3] addresses T3, panel of 468 kinases (Homo sapiens, UniProt P10721, D816H).
T3 construct: purchased KINOMEscan (ScanMAX) service
Particulars: KIT(D816H); 1 μM; read-out: % control.

In assay [4] the target is T4, panel of 468 kinases (Homo sapiens, UniProt P43403).
T4 construct: purchased KINOMEscan (ScanMAX) service
T4 sequence (P43403 1-619): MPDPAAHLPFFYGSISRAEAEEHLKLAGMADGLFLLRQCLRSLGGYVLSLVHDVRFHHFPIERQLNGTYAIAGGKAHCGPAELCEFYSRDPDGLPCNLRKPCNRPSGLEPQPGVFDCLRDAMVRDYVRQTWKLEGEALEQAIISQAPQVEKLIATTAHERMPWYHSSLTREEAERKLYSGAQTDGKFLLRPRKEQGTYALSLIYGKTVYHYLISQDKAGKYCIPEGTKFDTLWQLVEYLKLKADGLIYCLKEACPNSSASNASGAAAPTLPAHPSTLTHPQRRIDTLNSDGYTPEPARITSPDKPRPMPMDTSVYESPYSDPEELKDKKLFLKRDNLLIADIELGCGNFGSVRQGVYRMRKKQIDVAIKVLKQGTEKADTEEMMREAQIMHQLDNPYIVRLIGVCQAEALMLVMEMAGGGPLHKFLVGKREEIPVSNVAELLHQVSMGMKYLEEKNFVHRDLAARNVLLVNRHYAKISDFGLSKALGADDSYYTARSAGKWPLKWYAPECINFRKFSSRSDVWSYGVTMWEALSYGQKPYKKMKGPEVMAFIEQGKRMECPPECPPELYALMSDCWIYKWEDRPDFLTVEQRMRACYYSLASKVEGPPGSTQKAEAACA
The settings on record: ZAP70; 1 μM; read-out: % control.

Assay [5] deals with T5, panel of 468 kinases (Homo sapiens, UniProt P46734).
T5 construct: purchased KINOMEscan (ScanMAX) service
T5 sequence (P46734 1-347): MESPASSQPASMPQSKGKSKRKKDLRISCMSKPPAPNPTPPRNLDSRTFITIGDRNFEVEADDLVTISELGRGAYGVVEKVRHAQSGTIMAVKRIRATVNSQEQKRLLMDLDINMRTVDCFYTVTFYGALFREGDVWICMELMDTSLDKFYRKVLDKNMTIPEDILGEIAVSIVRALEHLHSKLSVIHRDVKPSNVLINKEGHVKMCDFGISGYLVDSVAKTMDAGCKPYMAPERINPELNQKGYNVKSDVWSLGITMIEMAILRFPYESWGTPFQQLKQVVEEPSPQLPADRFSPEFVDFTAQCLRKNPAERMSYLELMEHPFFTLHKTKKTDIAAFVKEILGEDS
The settings on record: MEK3; 1 μM; read-out: % control.

For assay [6], the target named is T6, panel of 468 kinases (Homo sapiens, UniProt P78356).
T6 construct: purchased KINOMEscan (ScanMAX) service
T6 sequence (P78356 1-416): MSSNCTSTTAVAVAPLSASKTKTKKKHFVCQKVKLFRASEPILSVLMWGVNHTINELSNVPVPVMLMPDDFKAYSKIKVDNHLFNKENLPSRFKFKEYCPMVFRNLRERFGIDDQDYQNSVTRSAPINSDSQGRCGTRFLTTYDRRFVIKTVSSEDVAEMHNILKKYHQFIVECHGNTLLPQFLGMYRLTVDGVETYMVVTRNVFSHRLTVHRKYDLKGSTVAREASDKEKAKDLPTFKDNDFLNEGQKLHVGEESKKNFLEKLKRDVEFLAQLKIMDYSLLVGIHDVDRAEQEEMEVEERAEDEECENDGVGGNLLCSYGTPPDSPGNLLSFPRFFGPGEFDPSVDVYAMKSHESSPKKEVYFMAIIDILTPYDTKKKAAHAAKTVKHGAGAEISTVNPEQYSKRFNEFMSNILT
Particulars: PIP5K2B; 1 μM; read-out: % control.

The target of assay [7] is T7, panel of 468 kinases (Homo sapiens, UniProt Q6PHR2).
T7 construct: purchased KINOMEscan (ScanMAX) service
T7 sequence (Q6PHR2 1-472): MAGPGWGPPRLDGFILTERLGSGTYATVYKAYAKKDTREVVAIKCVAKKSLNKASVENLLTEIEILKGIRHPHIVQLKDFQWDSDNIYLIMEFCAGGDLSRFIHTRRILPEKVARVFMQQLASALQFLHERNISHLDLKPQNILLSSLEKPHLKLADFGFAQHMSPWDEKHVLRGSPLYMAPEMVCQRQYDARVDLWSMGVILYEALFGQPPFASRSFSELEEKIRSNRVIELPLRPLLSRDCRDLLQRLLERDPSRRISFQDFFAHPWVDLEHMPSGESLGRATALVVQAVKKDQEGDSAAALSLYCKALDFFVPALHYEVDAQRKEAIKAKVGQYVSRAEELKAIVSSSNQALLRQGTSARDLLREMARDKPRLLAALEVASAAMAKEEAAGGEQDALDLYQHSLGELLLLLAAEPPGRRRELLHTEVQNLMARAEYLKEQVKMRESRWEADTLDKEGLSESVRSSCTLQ
Particulars: ULK3; 1 μM; read-out: % control.

In assay [8] the target is T8, panel of 468 kinases (Homo sapiens, UniProt Q9P1W9).
T8 construct: purchased KINOMEscan (ScanMAX) service
T8 sequence (Q9P1W9 whole entry): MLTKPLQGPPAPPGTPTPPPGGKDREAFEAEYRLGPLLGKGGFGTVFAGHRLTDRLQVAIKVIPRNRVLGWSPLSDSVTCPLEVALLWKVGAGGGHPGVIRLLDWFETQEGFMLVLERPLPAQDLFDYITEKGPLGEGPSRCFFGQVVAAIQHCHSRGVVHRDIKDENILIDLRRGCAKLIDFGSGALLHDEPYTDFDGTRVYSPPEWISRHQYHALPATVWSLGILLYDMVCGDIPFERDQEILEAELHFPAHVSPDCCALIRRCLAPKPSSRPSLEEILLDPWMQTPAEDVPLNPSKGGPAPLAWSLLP
Particulars: PIM2; 1 μM; read-out: % control.

Where two headings read alike, the source gives them in different places.

T3 sequence (P10721 26-976 D816H): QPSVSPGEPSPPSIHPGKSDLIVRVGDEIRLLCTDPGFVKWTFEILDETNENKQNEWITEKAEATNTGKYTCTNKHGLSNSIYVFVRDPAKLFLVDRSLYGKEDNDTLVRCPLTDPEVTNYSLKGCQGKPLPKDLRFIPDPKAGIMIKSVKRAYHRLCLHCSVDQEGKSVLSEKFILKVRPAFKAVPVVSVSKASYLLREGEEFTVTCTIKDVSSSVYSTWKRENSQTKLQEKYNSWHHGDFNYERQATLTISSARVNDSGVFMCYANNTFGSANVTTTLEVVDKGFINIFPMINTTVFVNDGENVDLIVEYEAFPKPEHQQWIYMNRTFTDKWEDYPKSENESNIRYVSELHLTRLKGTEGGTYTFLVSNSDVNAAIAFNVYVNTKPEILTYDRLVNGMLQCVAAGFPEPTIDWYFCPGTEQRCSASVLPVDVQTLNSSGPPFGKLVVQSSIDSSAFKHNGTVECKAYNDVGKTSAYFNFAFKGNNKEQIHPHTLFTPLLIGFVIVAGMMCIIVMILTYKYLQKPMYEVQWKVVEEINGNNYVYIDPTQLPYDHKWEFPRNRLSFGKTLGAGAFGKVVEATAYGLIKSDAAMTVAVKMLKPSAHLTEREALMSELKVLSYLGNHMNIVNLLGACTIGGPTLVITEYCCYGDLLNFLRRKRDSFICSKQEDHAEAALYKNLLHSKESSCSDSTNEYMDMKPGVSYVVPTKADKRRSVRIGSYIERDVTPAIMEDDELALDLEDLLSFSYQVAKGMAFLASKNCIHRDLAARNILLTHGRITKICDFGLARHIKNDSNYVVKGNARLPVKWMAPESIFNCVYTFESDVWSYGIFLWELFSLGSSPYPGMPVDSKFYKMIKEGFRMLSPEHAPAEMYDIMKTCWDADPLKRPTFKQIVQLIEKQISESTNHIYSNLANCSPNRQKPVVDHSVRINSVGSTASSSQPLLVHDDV

For the molecule `CNc1nc(Nc2ccc(S(=O)(=O)N3CCC(N4CCOCC4)CC3)cc2OC)nc2[nH]cc(Cl)c12` [Compound 12, 5-chloro-N2-(2-methoxy-4-((4-morpholinopiperidin-1-yl)sulfonyl)phenyl)-N4-methyl-7H-pyrrolo[2,3-d]pyrimidine-2,4-diamine], the remaining binding at 1 µM came out at 100% at panel of 468 kinases [1] (ABL1(H396P)-nonphosphorylated); 73% at panel of 468 kinases [1] (ABL1(H396P)-phosphorylated); 100% on panel of 468 kinases [2] (ABL1(Q252H)-nonphosphorylated); 79% on panel of 468 kinases [2] (ABL1(Q252H)-phosphorylated); 100% on panel of 468 kinases [3]; 65% at panel of 468 kinases [4]. Besides, the remaining binding at 1 µM at panel of 468 kinases [5] was 26%; on panel of 468 kinases [6], 100%; at panel of 468 kinases [7] it was 65%; on panel of 468 kinases [8], 99%.
On to `CNc1nc(Nc2ccc(P3(=O)CCN(C4CCOCC4)CC3)cc2OC)nc2[nH]cc(Cl)c12` [Compound 77, 4-(4-((5-chloro-4-(methylamino)-7H-pyrrolo[2,3-d]pyrimidin-2-yl)amino)-3-methoxyphenyl)-1-(tetrahydro-2H-pyran-4-yl)-1,4-azaphosphinane 4-oxide], for which the remaining binding at 1 µM was 100% at panel of 468 kinases [1] (ABL1(H396P)-nonphosphorylated); 75% at panel of 468 kinases [1] (ABL1(H396P)-phosphorylated); 100% on panel of 468 kinases [2] (ABL1(Q252H)-nonphosphorylated); 62% on panel of 468 kinases [2] (ABL1(Q252H)-phosphorylated); 93% on panel of 468 kinases [3]; 37% at panel of 468 kinases [4]. In addition, the remaining binding at 1 µM at panel of 468 kinases [5] came to 9.4%; on panel of 468 kinases [6] it was 100%; at panel of 468 kinases [7], 65%; at panel of 468 kinases [8], 100%.
For the molecule `CNc1nc(Nc2ccc(C(=O)N3CCC(N4CCOCC4)CC3)c3c2OCO3)nc2[nH]cc(Cl)c12` [Compound 75, (7-((5-chloro-4-(methylamino)-7H-pyrrolo[2,3-d]pyrimidin-2-yl)amino)benzo[d][1,3]dioxol-4-yl)(4-morpholinopiperidin-1-yl)methanone], the remaining binding at 1 µM on panel of 468 kinases [1] (ABL1(H396P)-nonphosphorylated) came out at 99%; at panel of 468 kinases [1] (ABL1(H396P)-phosphorylated), 82%; on panel of 468 kinases [2] (ABL1(Q252H)-nonphosphorylated), 100%; at panel of 468 kinases [2] (ABL1(Q252H)-phosphorylated), 57%; at panel of 468 kinases [3], 99%; at panel of 468 kinases [4], 22%. For the same molecule, the remaining binding at 1 µM at panel of 468 kinases [5] came to 2.4%; on panel of 468 kinases [6], 97%; on panel of 468 kinases [7], 7.6%; at panel of 468 kinases [8], 100%.
